In US5688936A, “Vesicle membrane transport proteins” (priority 1993, dated 1997):
“Also recorded” adds a separate entry of the source.

Columns and labels:
transfected CHO cells = experiment: Survival/selection/growth of transfected CHO cells in MPP+; format: cell-based, Chinese hamster; details: reserpine concentration not stated
Procedure: Using the above methods, the PC12 cDNA library constructed in the plasmid expression vector CDM8 was transfected into CHO cells. Using the selectable marker RSV- neo (Walker, Weizmann Institute, Israel), […] independent stable transformants were obtained after selection in the neomycin analogue G418 at 400 μg/ml effective dose. These cells were then selected at 40% confluence in 1 mM MPP^+. […] However, at four weeks, a colony of cells without refractile inclusions appeared and rapidly covered the plate. The apparently normal growth of these cells in the presence of 1 mM MPP^+ stands in marked contrast to all of the resistant clones obtained without transfection, which grew very slowly if at all. […] However, at 1 mM MPP^+, the resistant cells did show some toxicity, particularly when the assay was performed at higher cell density.
To identify the cDNA sequences responsible for conferring resistance to MPP^+, integrated plasmids were rescued from the primary CHO transformant obtained as described above in Example 1. […] The primary MPP^+ -resistant CHO transformant was amplified in culture and following cell lysis in 5M guanidinium isothiocyanate, the high molecular weight DNA prepared by repeated precipitation in isopropanol. After digestion with Not I, which cleaves the CDM8 vector once downstream of the cDNA insertion site as well as at rare eight-nucleotide recognition sites elsewhere in the genome, the DNA was religated and transformed into E. coli by electroporation as described by Stern-Bach et al., J. Biol. Chem. 265:3961-3966 (1990). Four pools of the derived plasmids containing approximately 50 colonies each were transfected into CHO cells and after two days were selected in 1 mM MPP^+. Four weeks later, one pool gave rise to several MPP^+ -resistant colonies, two pools gave rise to 1-2 colonies and the fourth pool and CDM8 vector gave rise to no healthy, resistant colonies. Restriction enzyme analysis of the plasmids in the pool conferring the highest frequency of resistance to MPP^+ indicated three independent clones of 1.0, 1.3 and 2.5 kb. […]

[1] = system: bacterial BMR transporter; details: cited from earlier work
[2] = system: MPP^+ -resistant CHO cells; experiment: MTT cytotoxicity assay in MPP+-resistant transfected CHO cells; format: cell-based, Chinese hamster; details: 1 μM reserpine, MPP+-resistant CHO cells
Procedure: (§1) Differential susceptibility to the respiratory complex I inhibitors MPP^+ and rotenone was shown by measuring toxicity by measuring general cell dehydrogenase activity with reduction of a tetrazolium dye (MTT) in a spectrophotometric plate assay as described by Hansen et al., J. Immunol. Methods 119:203-210 (1989). Briefly, a stock solution of MTT (3,(4,5-dimethylthiazol-2-yl)2,5-diphenyltetrazolium bromide) was dissolved at a concentration of 5 mg/ml in sterile phosphate buffered saline at room temperature. To each well was added 25 μl of the stock solution. After two hours of incubation at 37° C., 100 μl of extraction buffer (20% w/v of SDS in a solution of 50% each dimethylformamide and demineralized water with the pH adjusted to 4.7 with acetic acid and HCl). After an overnight incubation at 37° C., the optical densities at 570 nm were measured using a multiscanner, employing the extraction buffer as the blank. This assay was carried out in triplicate on 96-well plates (NUNC, Denmark). MPP^+ and rotenone at the concentrations indicated in FIG. 6a and 6b, respectively, was added to wild-type and MPP^+ -resistant CHO cells at approximately 50% confluence, and toxicity was assayed after 2-3 days by measuring general cell dehydrogenase activity with the reduction of the tetrazolium dye MTT (3,(4,5-dimethylthiazol-2-yl)2,5-diphenyl-tetrazolium bromide). After addition of the dye at a final concentration of 1 mg/ml, the cells were incubated for two hours at 37° C. and the formazan product was solubilized in 10% sodium dodecyl sulfate (SDS). The plates were maintained at 37° C. for an additional twenty hours and the optical density was determined in an ELISA plate reader at a test wavelength of 570 nm, a reference wavelength of 630 nm and a calibration setting of 1.99. All determinations were performed in triplicate and expressed as the mean, with the error bars representing standard deviation (FIG. 6a and 6b).
To determine whether an alteration in the process of respiration was responsible for the resistance to MPP^+, the effects of other known respiratory inhibitors were examined. […] Thus, if the resistance were due to a change in the site of action, the transfected cells should also show resistance to rotenone. […] However, rotenone is considered to have its selected effect on respiration at relatively low doses, and an additional, less specific effect at higher doses.
Therefore, the toxicity of MPP^+ to transfected cells in the presence of 1 μM reserpine was examined.

PC12 cells = experiment: cells; details: Rattus norvegicus, PC-12, 1 h, read-out: [^3 H]-Dopamine Uptake (PC12)
Procedure: The effects of various pharmacologic agents were tested to determine whether the properties of the protein encoded by the mpp^res cDNA corresponded with those expected for the chromaffin granule amine transport protein. […] The cells were pre-incubated in Krebs-Ringer buffer containing 1 μM pargyline and the dose of the drug indicated for 15 minutes. […] Values were determined from three separate wells and the mean was expressed as percent of control uptake±standard deviation.

wild-type CHO cells = experiment: MTT cytotoxicity assay in wild-type CHO cells; format: cell-based, Chinese hamster; details: wild-type CHO, lower MPP+ concentrations
Procedure: as §1

**Q.** Which “reversal of MPP+ resistance of transformants” value (transfected CHO cells) does the source give for `COC(=O)[C@H]1[C@H]2C[C@@H]3c4[nH]c5cc(OC)ccc5c4CCN3C[C@H]2C[C@@H](OC(=O)c2cc(OC)c(OC)c(OC)c2)[C@@H]1OC` [reserpine] here?
**A.** reversal of MPP^+ resistance; also recorded: reversible; also recorded: reversed

**Q.** And the “inhibition of bacterial BMR transporter” value [1]?
**A.** inhibits

**Q.** What about the “reversal of MPP+ resistance” value [2] of the same compound?
**A.** Dramatic reversion to wild-type CHO sensitivity

**Q.** And the activity at 1 µM (PC12 cells)?
**A.** 23 ± 2%

**Q.** And the “effect on MPP+ toxicity in wild-type cells” value (wild-type CHO cells)?
**A.** very little reproducible effect
